Experimental data: US20250188041A1, “NEW COMPOUNDS AND TREATMENT OF RENAL CELL CARCINOMA” (Trustlife Global Inc., priority 2022, published 2025)
Entries after “also recorded” stand apart in the source; their conditions may differ. *1 amine or outer side, *2 acyl side, *3 side chain or, on linkers, in order; H or OH if unused. Where a SMILES comes first, the peptide text is derived from it. Bridges are numbered along the chain shown (N, C = ends). Roman numbers before positions name the chains, in order. [ ]: non-standard residue; d: D form. Actinocin(9to1) = Cc1c2oc3c(C)ccc(C(=O)[*:1])c3nc-2c(C(=O)[*:2])c(N)c1=O; NMeV = CN[C@H](C(=O)O)C(C)C; Sar = CNCC(=O)O

Legend:
Format in all cases: cell-based, Human
RRM2 = assay: Western blot, RRM2 protein level in Caki-1 treated with repurposed drugs; conditions: 24 h, vs DMSO control
Procedure: (§1) Cell culture 1: Human clear cell renal cell carcinoma (ccRCC) cell line Caki-1 was obtained from the Karolinska Institute of Environmental Medicine, Stockholm, Sweden, derived from a ccRCC patient. The cells were cultured in RPMI 1640 medium with 10% fetal bovine serum (FBS) and 1% penicillin/streptomycin. The cells were cultivated at 37° C. in a humidified incubator with 5% CO2. TG-101209, NVP-TAE684, MK-0752, actinomycin-d, and panobinostat were purchased from Selleckchem ([…], […], […], […], […], Selleckchem, Houston, TX, USA), and withaferin-a was purchased from Sigma (W4394, Sigma-Aldrich, Saint Louis, MO, USA). These drugs were dissolved in DMSO. The cells (from cell culture 1) were seeded in a 96-well plate at 20×10^3 cells per well. After seeding for 24 h, the cells were treated for 24 h with the target drugs: TG-101209 (6 nM), NVP-TAE684 (3 nM), MK-0752 (5 nM), withaferin-a (4 uM), actinomycin-d (0.3 nM), and panobinostat (5 nM). The cells in the negative control group were only treated by DMSO for one day. The cells were washed with phosphate-buffered saline (PBS) and lysed with CelLytic M ([…], Sigma-Aldrich, Saint Louis, MO, USA) lysis buffer containing protease inhibitors. The lysates were centrifuged at 12 000 rpm for 5 min, and the supernatant was collected. The proteins were separated by Mini-PROTEAN® TGXTM Precast Gels (BioRad, Berkeley, CA, USA) and transferred to a Trans-Blot Turbo Mini 0.2 um PVDF Transfer Packs membrane (BioRad, Berkeley, CA, USA) by using Trans-Blot® TurboTM Transfer System (Bio-Rad, Berkeley, CA, USA). The antibodies for BUB1B (HPA008419), RRM2 (HPA056994), CEP55 (HPA023430), ASF1B(HPA069385), CCNB2 (HPA008873), and GAPDH (sc47724, Santa Cruz Biotechnology, Inc.) were used for primary immunoblotting. All the antibodies were diluted at 1:10000 concentration. The membranes were incubated in primary antibody solution overnight at 4° C. with gentle rocking. […] The protein bands were detected with ImageQuanattm LAS 500 (29-0050-63, GE) automatic exposure procedure or 6 min exposure.

Caki-1 = assay: CCK-8 cell viability assay of drug-treated Caki-1; conditions: 24 h, vs DMSO control
Procedure: Cell culture 1: Human clear cell renal cell carcinoma (ccRCC) cell line Caki-1 was obtained from the Karolinska Institute of Environmental Medicine, Stockholm, Sweden, derived from a ccRCC patient. The cells were cultured in RPMI 1640 medium with 10% fetal bovine serum (FBS) and 1% penicillin/streptomycin. The cells were cultivated at 37° C. in a humidified incubator with 5% CO2. TG-101209, NVP-TAE684, MK-0752, actinomycin-d, and panobinostat were purchased from Selleckchem ([…], […], […], […], […], Selleckchem, Houston, TX, USA), and withaferin-a was purchased from Sigma (W4394, Sigma-Aldrich, Saint Louis, MO, USA). These drugs were dissolved in DMSO. The cells (from cell culture 1) were seeded in a 96-well plate at 20×10^3 cells per well. After seeding for 24 h, the cells were treated for 24 h with the target drugs: TG-101209 (6 nM), NVP-TAE684 (3 nM), MK-0752 (5 nM), withaferin-a (4 uM), actinomycin-d (0.3 nM), and panobinostat (5 nM). The cells in the negative control group were only treated by DMSO for one day. Cell proliferation was detected by Cell Counting Kit-8 (CCK-8) assay. The 10 μl of CCK-8 reagent (1:10) was added to each well of 96-well plate with siRNA transfected cells or drug-treated cells by manufacturer's instruction. The 96-well plate was incubated at 37° C. for 2 hours and then measured absorbance at 450 nm using a microplate reader (Hidex Sense Beta Plus).

BUB1B [1] = assay: Western blot, BUB1B expression in Caki-1 treated with TG-101209 alternatives; conditions: Caki-1, 5 μM of target drug, 1 day (FIG. 41; method says 2 days)
Procedure: (§2) Cell culture 2: Caki-1 was purchased from CLS Cell Lines Service (Germany). The cells were maintained in McCoy's SA (modified) medium (16600082, Thermo Fisher Scientific, USA) and supplemented with 10% fetal bovine serum (FBS, F7524, Sigma-Aldrich), 1% Penicillin/Streptomycin (P4333, Sigma-Aldrich).
The target drugs developed as alternatives to TG-101209, were dissolved in 0.1% DMSO (41639, Sigma-Aldrich). Caki-1 cells from cell culture 2 were seeded in a 6-well plate at 3×10^5 cells per well. […]
The cells were washed with PBS solution and then lysed with CelLytic M (C2978, Sigma-Aldrich) lysis buffer containing protease inhibitors (11836170001, Roche). The cell lysates were centrifuged at 12 000 rpm for 10 min and supernatants were collected. Protein Assay Dye Reagent (5000006, Bio-Rad) was used for the determination of protein concentration. The absorbance of the proteins was measured spectrophotometrically at 595 nm by a microplate reader (Hidex Sense Beta Plus). Protein electrophoresis was performed using Mini-PROTEAN® TGX™ Precast Gels (4561086, Bio-Rad) and then the separated proteins were transferred to a Trans-Blot Turbo Mini 0.2 um PVDF Transfer Packs membrane (1704158, Bio-Rad) by using Trans-Blot® Turbo™ Transfer System (Bio-Rad). The membrane was blocked with 5% skim milk for 30 min at 4° C. with gentle rocking. After blocking, the membrane was treated with primary antibodies: Anti-BUB1B (HPA008419, Human Protein Atlas, Sweden) and Anti-Beta actin (ab8227, Abcam) as a loading control overnight at 4° C. on a rocking platform. After the treatment of primary antibodies, the membrane was washed three times with TBS-T buffer (A09-7500-100, Medicago). Then, Goat anti-Rabbit IgG-HRP (ab205718, Abcam) was treated as the secondary antibody for 30 min at 4° C. with gentle rocking.

BUB1B [2] = assay: Western blot, BUB1B protein level in Caki-1 treated with repurposed drug; conditions: Caki-1, 6 nM, 24 h, compared to negative control (DMSO)
Procedure: as §1, with “inhibitors.” for “inhibitors. The lysates were centrifuged at 12 000 rpm for 5 min, and the supernatant was collected. The proteins were separated by Mini-PROTEAN® TGXTM Precast Gels (BioRad, Berkeley, CA, USA) and transferred to a Trans-Blot Turbo Mini 0.2 um PVDF Transfer Packs membrane (BioRad, Berkeley, CA, USA) by using Trans-Blot® TurboTM Transfer System (Bio-Rad, Berkeley, CA, USA). The antibodies for BUB1B (HPA008419), RRM2 (HPA056994), CEP55 (HPA023430), ASF1B(HPA069385), CCNB2 (HPA008873), and GAPDH (sc47724, Santa Cruz Biotechnology, Inc.) were used for primary immunoblotting. All the antibodies were diluted at 1:10000 concentration. The membranes were incubated in primary antibody solution overnight at 4° C. with gentle rocking.”

Caki-1 cells = assay: MTT cell viability assay of Caki-1 treated with TG-101209 and its alternatives
Procedure: as §2
The cytotoxic effects of the TG-101209 and its alternatives on the Caki-1 cells were tested by MTT (Thiazolyl Blue Tetrazolium Bromide) method. 1.5×10^4 cells were seeded per well in a 96-well plate in 100 μL growth media. […] After the incubation period, 5 mg/ml MTT (M2128, Sigma-Aldrich) solution in PBS (10 μL) was added to each well. After 1 hour, the MTT solution and all media were removed from the wells. 100 μl of DMSO was added and mixed to dissolve the formazan crystals. Cell viability was analysed by measuring the absorbance of the dissolved formazan at a wavelength of 570 nm with a microplate reader (Hidex Sense Beta Plus).

COc1cc(N2CCC(N3CCN(C)CC3)CC2)ccc1Nc1ncc(Cl)c(Nc2ccccc2S(=O)(=O)C(C)C)n1 [NVP-TAE684]
protein level of RRM2 (RRM2; Caki-1, 3 nM): significantly suppressed
cell viability (Caki-1; Caki-1, CCK-8, 3 nM): significantly reduced

Cc1cnc(Nc2ccc(N3CCN(C)CC3)cc2)nc1Nc1cccc(S(=O)(=O)NC(C)(C)C)c1 [TG-101209, reference compound]
expression levels of BUB1B (BUB1B [1]): significantly lower the expression levels of BUB1B
cell viability (Caki-1; Caki-1, CCK-8, 6 nM): significantly reduced
protein level of BUB1B (BUB1B [2]): significantly decreased; also recorded: significantly reduced
cell viability (MTT assay) (Caki-1 cells; Caki-1, 10 μM, 1 day): most profound effect on the cell viability
IC50 (Caki-1 cells; FIG. 43, assay not named, presumably Caki-1 cell viability): ~3000 nM
Ranking, Cell viability (%) (Caki-1 cells; top five target drugs, MTT assay, 10 μM, 1 day, rank 1 = greatest reduction): 5

Cc1c2oc3c(C)ccc(C(=O)N[C@@H]4C(=O)N[C@H](C(C)C)C(=O)N5CCC[C@H]5C(=O)N(C)CC(=O)N(C)[C@@H](C(C)C)C(=O)O[C@@H]4C)c3nc-2c(C(=O)N[C@@H]2C(=O)N[C@H](C(C)C)C(=O)N3CCC[C@H]3C(=O)N(C)CC(=O)N(C)[C@@H](C(C)C)C(=O)O[C@@H]2C)c(N)c1=O [actinomycin-d] (I: T[dV]P[Sar][NMeV] / II: T[dV]P[Sar][NMeV]; ester I:1-I:C, II:1-II:C; linker I:N-II:N via Actinocin(9to1))
protein level of RRM2 (RRM2; Caki-1, 0.3 nM): does not work for inhibiting RRM2

CC1=C(CO)C(=O)O[C@@H]([C@@H](C)[C@H]2CC[C@H]3[C@@H]4C[C@H]5O[C@]56[C@@H](O)C=CC(=O)[C@]6(C)[C@H]4CC[C@]23C)C1 [withaferin-a]
protein level of RRM2 (RRM2; Caki-1, 4 uM): significantly suppressed
cell viability (Caki-1; Caki-1, CCK-8, 4 uM): significantly reduced
